This is an account of results in patent publication US20240132467A1, “BENZIMIDAZOLE DERIVATIVES FOR TREATING RESPIRATORY DISEASE” (TMEM16A Limited, priority 2020, published 2024).

In the test the target is T1, human TMEM16A (TMEM16Aabc variant) (Homo sapiens, UniProt Q5XXA6, DEL476-501).
T1 sequence (Q5XXA6 with tags, fused parts or gaps isoform Q5XXA6-5 DEL539-564): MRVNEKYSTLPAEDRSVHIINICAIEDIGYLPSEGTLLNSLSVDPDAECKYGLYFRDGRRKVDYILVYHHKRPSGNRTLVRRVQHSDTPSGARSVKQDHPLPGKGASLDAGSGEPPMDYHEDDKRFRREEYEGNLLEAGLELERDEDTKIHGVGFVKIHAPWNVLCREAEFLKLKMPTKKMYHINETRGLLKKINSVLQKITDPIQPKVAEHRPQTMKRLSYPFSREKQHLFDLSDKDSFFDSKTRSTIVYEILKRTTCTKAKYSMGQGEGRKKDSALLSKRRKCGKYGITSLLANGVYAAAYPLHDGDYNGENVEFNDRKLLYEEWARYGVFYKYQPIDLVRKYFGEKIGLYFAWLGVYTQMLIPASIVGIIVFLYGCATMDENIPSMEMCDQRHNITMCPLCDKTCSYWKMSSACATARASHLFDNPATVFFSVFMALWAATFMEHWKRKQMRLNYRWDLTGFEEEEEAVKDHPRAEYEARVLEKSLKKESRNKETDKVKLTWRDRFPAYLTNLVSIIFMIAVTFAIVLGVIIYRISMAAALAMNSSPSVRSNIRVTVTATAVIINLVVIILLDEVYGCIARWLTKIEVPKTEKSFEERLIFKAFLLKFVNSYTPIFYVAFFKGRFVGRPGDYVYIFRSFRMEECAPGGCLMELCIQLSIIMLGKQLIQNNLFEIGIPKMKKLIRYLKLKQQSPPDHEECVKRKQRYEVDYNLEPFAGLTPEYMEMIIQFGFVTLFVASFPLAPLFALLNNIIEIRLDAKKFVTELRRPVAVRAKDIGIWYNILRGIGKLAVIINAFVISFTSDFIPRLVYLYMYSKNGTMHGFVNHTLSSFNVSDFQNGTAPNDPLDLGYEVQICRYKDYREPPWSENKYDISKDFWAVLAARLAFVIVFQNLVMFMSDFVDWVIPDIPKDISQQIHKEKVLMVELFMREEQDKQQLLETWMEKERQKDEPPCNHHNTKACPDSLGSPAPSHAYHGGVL
The test is described as follows: Automated whole-cell patch clamp (Qpatch) TMEM16A potentiator assay in FRT cells stably expressing human TMEM16A. Type of test: cell-based. The settings on record: for activation at 3.33 µM: 3.33 μM test compound, percentage increase of baseline TMEM16A current at +70 mV, intracellular calcium at EC20, read-out: % Potentiation @ 3.33 μM Avg; for EC50: cumulative concentration response, 5 min per concentration, whole-cell patch clamp. As for the experimental part: Automated whole-cell patch clamp assay to detect TMEM16A activity in recombinant cells Cell culture and preparation
Fisher rat thyroid (FRT) cells stably expressing human TMEM16A (TMEM16Aabc variant; Dr Luis Galietta, Insituto Giannina, Italy) were cultured in T-75 flasks in Hams F-12 media with Coon's modification (Sigma) supplemented with 10% (v/v) foetal bovine serum, penicillin-streptomycin (10,000 U/mL/10000 μg/mL), G-418 (750μg/mL), L-glutamine (2 mM) and sodium bicarbonate solution (7.5% v/v). At —90% confluence cells were harvested for experiments by detachment with a 2:1 (v/v) mixture of Detachin (BMS Biotechnology) and 0.25% (w/v) trypsin-EDTA. Cells were diluted to a density of 3.5-4.5×10^6 cells/mL with media consisting of CHO-S-SFM II (Sigma), 25 mM HEPES (Sigma) and Soy bean trypsin inhibitor (Sigma).
Whole-Cell Patch Clamp Recording
FRT-TMEM16A cells were whole-cell patch clamped using an automated planar patch clamp system (Qpatch, Sophion). Briefly, once high resistance (GOhm) seals were established between the cells and the planar recording array the patch was ruptured using suction pulses to establish the whole-cell recording configuration of the patch clamp technique. The assay employed the following solutions (all reagents Sigma):
Intracellular solution (mM): N-methyl-D-glucamine 130, CaCl2 18.2, MgCl2 1, HEPES 10, EGTA 10, BAPTA 20, Mg-ATP 2, pH 7.25, 325mOsm with sucrose.
Extracellular solution (mM): N-methyl-D-glucamine 130, CaCl2 2, MgCl2 1, HEPES 10, pH 7.3, 320 mOsm with sucrose.
The intracellular solution buffers intracellular calcium at levels required to give —20% activation of the maximal TMEM16A mediated current (EC20 for calcium ions). Cells were voltage clamped at a holding potential of -70mV and a combined voltage step (to +70 mV)/ramp (−90 my to +90 mV) was applied at 0.05 Hz. After a period of current stabilisation test compounds, solubilised in 100% (v/v) DMSO and subsequently diluted into extracellular solution, were applied to generate a cumulative concentration response curve. Each concentration of test compound was incubated for 5 minutes before addition of the next concentration. After the final concentration was tested a supramaximal concentration of either a known active positive modulator or the TMEM16A inhibitor, CaCCinhA01 (Del La Fuente et al, 2008) was added to define the upper and lower limits of the assay.
Compound activity was quantified by measuring the increase in current upon compound addition and expressing this as a percentage increase of baseline TMEM16A current level. Percentage increases in current were determined for each concentration and the data plotted as a function of concentration using either the Qpatch software or Graphpad Prism v6.05 providing the concentration which gave 50% of its maximal effect (EC50) and maximum efficacy (percentage of baseline increase).
In FIG. 1, IBL equals baseline current, km equals the peak current during test compound concentration 1 incubation period and so on.
Peak TMEM16A current at +70mV was plotted as a function of time over the assay period. Baseline current (IBL) was measured after a period of stabilisation. The increase in current for each compound addition was determined by taking the peak current during the incubation period and subtracting the current from the previous recording period and then expressing this as a percentage of the baseline current. For test compound concentration 1 in FIG. 1 this is:
For each additional concentration tested the increase in current was determined by subtracting the current from the previous incubation period and normalising the baseline value—for test concentration 2 in FIG. 1 this is:
The values for each test concentration were plotted as a cumulative function of concentration e.g. for test concentration two this would be the sum of the peak changes measured during concentration one plus concentration two.
(The patch-clamp technique gives a direct electrical read-out from membranes.)

As to `CC(C)(C)OC(=O)NCCc1nc2cc(NC(=O)CC3C4CC5CC(C4)CC3C5)ccc2[nH]1` (stereo not drawn) [Example 3.4], the activation at 3.33 µM is 99.8% and the EC50 was determined as 471 nM.
In the same order, the values of `CC(C)(C)CNC(=O)c1ccc2[nH]c(Cc3ccccc3)nc2c1` [Example 3.5, 2-Benzyl-N-(2,2-dimethylpropyl)-1H-benzimidazole-5-carboxamide] are 144% and 1020 nM.
On to `CC(C)(C)C(C)(C)NC(=O)c1ccc2[nH]c(Cc3ccccc3)nc2c1` [Example 3.5.1, 2-Benzyl-N-(1,1,2,2-tetramethylpropyl)-1H-benzimidazole-5-carboxamide], for which the activation at 3.33 µM is 89.5% and the EC50 stood at 779 nM.

Usually EC50 stands for the concentration giving half of the maximal effect.
